In general, Ki refers to the dissociation constant of the complex between target and ligand, obtained from inhibition or displacement. Low readings indicate a stronger hold on the target, high ones a looser hold on the target.

The source of these data is ChEMBL document CHEMBL1140183, “Bornyl- and isobornyl-Delta8-tetrahydrocannabinols: a novel class of cannabinergic ligands” (J Med Chem, 2008).

One assay concerns the target Cannabinoid receptor 1 (Rattus norvegicus, UniProt P20272). Put plainly: Displacement of [3H]CP-55940 from CB1 receptor in rat brain synaptosome membrane. It counts as cell membranes. (Displacement assays read how much labelled ligand stays bound in the presence of the test substance.)
The target in another assay is Cannabinoid receptor 2 (Mus musculus, UniProt P47936). Kind of assay: Displacement of [3H]CP-55940 from CB2 receptor in mouse spleen membrane. It counts as cell membranes.
Cannabinoid receptor 2, sequence (P47936 whole entry): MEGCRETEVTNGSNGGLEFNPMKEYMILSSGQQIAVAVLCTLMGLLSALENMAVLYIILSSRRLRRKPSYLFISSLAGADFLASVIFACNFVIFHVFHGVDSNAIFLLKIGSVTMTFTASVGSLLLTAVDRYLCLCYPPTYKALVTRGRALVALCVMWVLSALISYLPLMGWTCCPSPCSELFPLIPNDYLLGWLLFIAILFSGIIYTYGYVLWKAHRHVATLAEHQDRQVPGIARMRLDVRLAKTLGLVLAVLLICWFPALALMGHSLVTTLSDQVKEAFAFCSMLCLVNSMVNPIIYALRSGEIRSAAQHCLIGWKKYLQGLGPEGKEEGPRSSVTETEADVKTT

Cannabinoid receptor 1, sequence (P20272 whole entry): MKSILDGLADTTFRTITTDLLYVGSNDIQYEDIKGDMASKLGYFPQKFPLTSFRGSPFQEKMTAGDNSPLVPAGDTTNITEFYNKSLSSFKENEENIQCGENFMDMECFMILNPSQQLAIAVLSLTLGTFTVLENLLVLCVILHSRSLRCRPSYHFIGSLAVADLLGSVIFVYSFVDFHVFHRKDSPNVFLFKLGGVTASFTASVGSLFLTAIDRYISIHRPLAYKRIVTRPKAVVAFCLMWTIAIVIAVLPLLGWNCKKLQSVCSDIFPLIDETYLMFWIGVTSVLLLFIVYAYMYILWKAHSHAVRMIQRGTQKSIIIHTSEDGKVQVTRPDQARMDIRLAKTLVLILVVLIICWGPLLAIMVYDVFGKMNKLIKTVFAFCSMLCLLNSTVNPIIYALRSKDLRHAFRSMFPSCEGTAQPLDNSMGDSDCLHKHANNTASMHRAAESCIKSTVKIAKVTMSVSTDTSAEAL

In the case of `CC1=CC[C@@H]2[C@@H](C1)c1c(O)cc([C@H]3C[C@@H]4CC[C@]3(C)C4(C)C)cc1OC2(C)C`, the Ki on Cannabinoid receptor 1 came out at 8.9 nM; on Cannabinoid receptor 2, 7.4 nM.

Consider `CC1=CC[C@@H]2[C@@H](C1)c1c(ccc(C[C@H]3C[C@@H]4CC[C@]3(C)C4(C)C)c1O)OC2(C)C`, for which the Ki on Cannabinoid receptor 1 was 32.7 nM; on Cannabinoid receptor 2, 30.5 nM.

Consider `CC1=CC[C@@H]2[C@@H](C1)c1c(ccc(C[C@@H]3C[C@@H]4CC[C@]3(C)C4(C)C)c1O)OC2(C)C`, for which the Ki came out at 49 nM on Cannabinoid receptor 1 and 49.5 nM at Cannabinoid receptor 2.

For `CC1=CC[C@@H]2[C@@H](C1)c1c(O)cc([C@@H]3C[C@@H]4CC[C@]3(C)C4(C)C)cc1OC2(C)C`, the Ki at Cannabinoid receptor 1 amounted to 60.2 nM; on Cannabinoid receptor 2, 6.1 nM.
